The NIST ThermoML archive (doi:10.1016/j.jct.2008.07.009)

Test: xn = mol fraction of the nth substance listed
Conditions: 101 kPa, Liquid, Vibrating tube method

CC(=O)N1CCOCC1 [4-acetylmorpholine] + c1ccccc1
mass density [kg/m3]
Conditions	293.15 K	303.15 K	313.15 K	323.15 K	333.15 K	343.15 K
x2 = 0.0546	1104.6	1096.7	1088.2	1079.6	1071	1062.4
x2 = 0.1127	1094.9	1086.8	1078.1	1069.3	1060.6	1051.8
x2 = 0.1568	1087.2	1079	1070.2	1061.2	1052.4	1043.5
x2 = 0.2099	1078	1069.6	1060.6	1051.3	1042.3	1033.2
x2 = 0.2673	1067.5	1058.9	1049.8	1040.5	1031.4	1022.1
x2 = 0.3128	1059	1050.2	1040.9	1031.6	1022.2	1012.9
x2 = 0.3564	1050.6	1041.7	1032.3	1022.8	1013.4	1003.9
x2 = 0.4056	1040.8	1031.7	1022.2	1012.5	1002.9	993.3
x2 = 0.4562	1030.1	1020.8	1011.2	1001.4	991.7	981.8
x2 = 0.5039	1019.5	1010.1	1000.3	990.4	980.6	970.6
x2 = 0.5683	1004.5	994.9	984.9	974.9	964.9	954.8
x2 = 0.6138	993.3	983.5	973.5	963.4	953.2	942.6
x2 = 0.6866	974.4	964.5	954.3	943.9	933.6	923.3
x2 = 0.7437	958.7	948.6	938.3	927.7	917.6	907.1
x2 = 0.8033	941.3	931.1	920.7	910.2	899.7	889.2
x2 = 0.8659	922.4	912.1	901.6	891	880.5	869.8
x2 = 0.9154	906.8	896.3	885.8	875.2	864.6	853.8
x2 = 0.9687	889.4	878.9	868.4	857.7	847	836.3
